# According to ChEMBL document CHEMBL3352328, “Synthesis and biological evaluation of a new series of N-acyldiamines as potential antibacterial and antifungal agents” (2014):
# Active and inactive are the calls of the source. No cut-off for these calls is given here.
# Key:
# Candida albicans = assay: Antifungal activity against Candida albicans ATCC 18804 by broth microdilution method; format: functional
# Nakaseomyces glabratus = assay: Antifungal activity against Candida glabrata ATCC 90030 by broth microdilution method; format: functional
# Escherichia coli [1] = assay: Antimicrobial activity against Escherichia coli ATCC 11229 by broth dilution method; format: functional
# Staphylococcus aureus [2] = assay: Antimicrobial activity against Staphylococcus aureus ATCC 29213 by broth dilution method; format: functional
# [3] = system: Staphylococcus epidermidis; assay: Bactericidal activity against Staphylococcus epidermidis ATCC 12228 after 24 hrs; format: functional; conditions: ATCC 12228, 24 h
# [4] = system: Staphylococcus epidermidis; assay: Antimicrobial activity against Staphylococcus epidermidis ATCC 12228 by broth dilution method; format: functional
# Candida parapsilosis = assay: Antifungal activity against Candida parapsilosis ATCC 22019 by broth microdilution method; format: functional; conditions: Lodderomyces parapsilosis
# Escherichia coli [5] = assay: Bactericidal activity against Escherichia coli ATCC 11229 after 24 hrs; format: functional; conditions: ATCC 11229, 24 h
# Pseudomonas aeruginosa [6] = assay: Bactericidal activity against Pseudomonas aeruginosa ATCC 27853 after 24 hrs; format: functional; conditions: ATCC 27853, 24 h
# Staphylococcus aureus [7] = assay: Bactericidal activity against Staphylococcus aureus ATCC 29213 after 24 hrs; format: functional; conditions: ATCC 29213, 24 h
# Candida tropicalis = assay: Antifungal activity against Candida tropicalis ATCC 750 by broth microdilution method; format: functional
# Pseudomonas aeruginosa [8] = assay: Antimicrobial activity against Pseudomonas aeruginosa ATCC 27853 by broth dilution method; format: functional
# Staphylococcus aureus [9] = assay: Bactericidal activity against methicillin-resistant Staphylococcus aureus clinical isolate 8 after 24 hrs; format: functional; conditions: isolate 8, 24 h
# Staphylococcus aureus [10] = assay: Bactericidal activity against methicillin-resistant Staphylococcus aureus clinical isolate 3 after 24 hrs; format: functional; conditions: isolate 3, 24 h
# Staphylococcus aureus [11] = assay: Bactericidal activity against methicillin-resistant Staphylococcus aureus clinical isolate 20 after 24 hrs; format: functional; conditions: isolate 20, 24 h
# Staphylococcus aureus [12] = assay: Bactericidal activity against methicillin-resistant Staphylococcus aureus clinical isolate 7 after 24 hrs; format: functional; conditions: isolate 7, 24 h
# Staphylococcus aureus [13] = assay: Bactericidal activity against methicillin-resistant Staphylococcus aureus clinical isolate 4 after 24 hrs; format: functional; conditions: isolate 4, 24 h
# Staphylococcus aureus [14] = assay: Bactericidal activity against methicillin-resistant Staphylococcus aureus clinical isolate 9 after 24 hrs; format: functional; conditions: isolate 9, 24 h
# Staphylococcus aureus [15] = assay: Bactericidal activity against methicillin-resistant Staphylococcus aureus clinical isolate 2 after 24 hrs; format: functional; conditions: isolate 2, 24 h
# Staphylococcus aureus [16] = assay: Bactericidal activity against methicillin-resistant Staphylococcus aureus clinical isolate 11 after 24 hrs; format: functional; conditions: isolate 11, 24 h
# Staphylococcus aureus [17] = assay: Bactericidal activity against methicillin-resistant Staphylococcus aureus clinical isolate 13 after 24 hrs; format: functional; conditions: isolate 13, 24 h
# Staphylococcus aureus [18] = assay: Bactericidal activity against methicillin-resistant Staphylococcus aureus clinical isolate 14 after 24 hrs; format: functional; conditions: isolate 14, 24 h
# Staphylococcus aureus [19] = assay: Bactericidal activity against methicillin-resistant Staphylococcus aureus clinical isolate 6 after 24 hrs; format: functional; conditions: isolate 6, 24 h
# Staphylococcus aureus [20] = assay: Bactericidal activity against methicillin-resistant Staphylococcus aureus clinical isolate 17 after 24 hrs; format: functional; conditions: isolate 17, 24 h
# Staphylococcus aureus [21] = assay: Bactericidal activity against methicillin-resistant Staphylococcus aureus clinical isolate 15 after 24 hrs; format: functional; conditions: isolate 15, 24 h
# Staphylococcus aureus [22] = assay: Bactericidal activity against methicillin-resistant Staphylococcus aureus clinical isolate 18 after 24 hrs; format: functional; conditions: isolate 18, 24 h
# Staphylococcus aureus [23] = assay: Bactericidal activity against methicillin-resistant Staphylococcus aureus clinical isolate 16 after 24 hrs; format: functional; conditions: isolate 16, 24 h
# Staphylococcus aureus [24] = assay: Bactericidal activity against methicillin-resistant Staphylococcus aureus clinical isolate 12 after 24 hrs; format: functional; conditions: isolate 12, 24 h
# Staphylococcus aureus [25] = assay: Bactericidal activity against methicillin-resistant Staphylococcus aureus clinical isolate 19 after 24 hrs; format: functional; conditions: isolate 19, 24 h
# Staphylococcus aureus [26] = assay: Bactericidal activity against methicillin-resistant Staphylococcus aureus clinical isolate 21 after 24 hrs; format: functional; conditions: isolate 21, 24 h
# Staphylococcus aureus [27] = assay: Bactericidal activity against methicillin-resistant Staphylococcus aureus clinical isolate after 24 hrs; format: functional
# Staphylococcus aureus [28] = assay: Bactericidal activity against methicillin-resistant Staphylococcus aureus clinical isolate 1 after 24 hrs; format: functional; conditions: isolate 1, 24 h
# Staphylococcus aureus [29] = assay: Bactericidal activity against methicillin-resistant Staphylococcus aureus clinical isolate 10 after 24 hrs; format: functional; conditions: isolate 10, 24 h
# Staphylococcus aureus [30] = assay: Bactericidal activity against methicillin-resistant Staphylococcus aureus clinical isolate 5 after 24 hrs; format: functional; conditions: isolate 5, 24 h
# Escherichia coli [31] = assay: Bacteriostatic activity against Escherichia coli ATCC 11229 after 24 hrs; format: functional, organism-based
# [32] = system: Staphylococcus epidermidis; assay: Bacteriostatic activity against Staphylococcus epidermidis ATCC 12228 after 24 hrs; format: functional, organism-based
# Staphylococcus aureus [33] = assay: Bacteriostatic activity against Staphylococcus aureus ATCC 29213 after 24 hrs; format: functional, organism-based
# Pseudomonas aeruginosa [34] = assay: Bacteriostatic activity against Pseudomonas aeruginosa ATCC 27853 after 24 hrs; format: functional, organism-based
Compound,MIC (Candida albicans),MIC (Nakaseomyces glabratus),MIC (Escherichia coli [1]),MIC (Staphylococcus aureus [2]),MIC [4],MIC (Candida parapsilosis),MIC (Candida tropicalis),MIC (Pseudomonas aeruginosa [8]),MBC [3],MBC (Staphylococcus aureus [7]),MBC (Staphylococcus aureus [10]),MBC (Staphylococcus aureus [13]),MBC (Staphylococcus aureus [15]),MBC (Staphylococcus aureus [18]),MBC (Staphylococcus aureus [19]),MBC (Staphylococcus aureus [20]),MBC (Staphylococcus aureus [21]),MBC (Staphylococcus aureus [22]),MBC (Staphylococcus aureus [26]),MIC90 (Staphylococcus aureus [27]),further results
CCCCCCCC/C=C\CCCCCCCC(=O)NCCCN,2 µg/mL,4 µg/mL,4 µg/mL,2 µg/mL,1 µg/mL,4 µg/mL,4 µg/mL,> 1020 µg/mL,16 µg/mL,128 µg/mL,16 µg/mL,512 µg/mL,16 µg/mL,1020 µg/mL,64 µg/mL,16 µg/mL,16 µg/mL,8 µg/mL,512 µg/mL,512 µg/mL,MBC (Staphylococcus aureus [9]): 16 µg/mL; MBC (Staphylococcus aureus [11]): 1020 µg/mL; MBC (Staphylococcus aureus [12]): 16 µg/mL; MBC (Staphylococcus aureus [14]): 16 µg/mL; MBC (Staphylococcus aureus [16]): 16 µg/mL; MBC (Staphylococcus aureus [17]): 64 µg/mL; MBC (Staphylococcus aureus [23]): 8 µg/mL; MBC (Staphylococcus aureus [24]): 16 µg/mL; MBC (Staphylococcus aureus [25]): 4 µg/mL; MIC50 (Staphylococcus aureus [27]): 16 µg/mL; MBC (Staphylococcus aureus [28]): 16 µg/mL; MBC (Staphylococcus aureus [29]): 8 µg/mL; MBC (Staphylococcus aureus [30]): 16 µg/mL; Activity (Escherichia coli [31]): Active
CCC(C)n1ncn(-c2ccc(N3CCN(c4ccc(OCC5COC(Cn6cncn6)(c6ccc(Cl)cc6Cl)O5)cc4)CC3)cc2)c1=O (configuration not stated) [ITRACONAZOLE],0.5 µg/mL,256 µg/mL,,,,> 512 µg/mL,> 512 µg/mL,,,,,,,,,,,,,,
O=C(N[C@H](CO)[C@H](O)c1ccc([N+](=O)[O-])cc1)C(Cl)Cl [CHLORAMPHENICOL],,,,,32 µg/mL,,,32 µg/mL,128 µg/mL,,4 µg/mL,8 µg/mL,4 µg/mL,64 µg/mL,8 µg/mL,4 µg/mL,32 µg/mL,8 µg/mL,8 µg/mL,32 µg/mL,MBC (Staphylococcus aureus [9]): 64 µg/mL; MBC (Staphylococcus aureus [11]): 4 µg/mL; Activity (Staphylococcus aureus [33]): Active; MBC (Staphylococcus aureus [12]): 64 µg/mL; MBC (Staphylococcus aureus [14]): 8 µg/mL; MBC (Staphylococcus aureus [16]): 64 µg/mL; MBC (Staphylococcus aureus [17]): 64 µg/mL; Activity (Pseudomonas aeruginosa [34]): Active; MBC (Staphylococcus aureus [23]): 32 µg/mL; MBC (Staphylococcus aureus [24]): 64 µg/mL; MBC (Staphylococcus aureus [25]): 128 µg/mL; MBC (Staphylococcus aureus [28]): 64 µg/mL; MBC (Staphylococcus aureus [29]): 64 µg/mL; MBC (Staphylococcus aureus [30]): 4 µg/mL; Activity (Escherichia coli [31]): Active
CCCCCCCCCCCCCC(=O)NCCN,4 µg/mL,16 µg/mL,64 µg/mL,8 µg/mL,16 µg/mL,32 µg/mL,16 µg/mL,1020 µg/mL,,128 µg/mL,512 µg/mL,512 µg/mL,512 µg/mL,128 µg/mL,512 µg/mL,128 µg/mL,64 µg/mL,128 µg/mL,128 µg/mL,256 µg/mL,Activity (Pseudomonas aeruginosa [34]): Active; Activity [32]: Active; MIC50 (Staphylococcus aureus [27]): 32 µg/mL; MBC (Staphylococcus aureus [29]): 512 µg/mL; MBC (Staphylococcus aureus [30]): 512 µg/mL; Activity (Escherichia coli [31]): Active

# Further lines, with some results ahead:
MIC (Candida albicans),MIC (Nakaseomyces glabratus),MIC (Escherichia coli [1]),MIC (Staphylococcus aureus [2]),MIC [4],MIC (Candida parapsilosis),MIC (Candida tropicalis),MIC (Pseudomonas aeruginosa [8]),Compound,MBC [3],MBC (Staphylococcus aureus [7]),MBC (Staphylococcus aureus [10]),MBC (Staphylococcus aureus [13]),MBC (Staphylococcus aureus [15]),MBC (Staphylococcus aureus [18]),MBC (Staphylococcus aureus [19]),MBC (Staphylococcus aureus [20]),MBC (Staphylococcus aureus [21]),MBC (Staphylococcus aureus [22]),MBC (Staphylococcus aureus [26]),MIC90 (Staphylococcus aureus [27]),further results
16 µg/mL,32 µg/mL,256 µg/mL,16 µg/mL,16 µg/mL,128 µg/mL,64 µg/mL,1020 µg/mL,CCCCCCCCCCCCCC(=O)NCCCCN,32 µg/mL,1020 µg/mL,,,,,,,,,,,MBC (Escherichia coli [5]): 1020 µg/mL; MBC (Pseudomonas aeruginosa [6]): 1020 µg/mL
128 µg/mL,64 µg/mL,> 1020 µg/mL,> 1020 µg/mL,8 µg/mL,128 µg/mL,128 µg/mL,> 1020 µg/mL,CCCCCCCC/C=C\CCCCCCCC(=O)NCCN,,,,,,,,,,,,,Activity [32]: Active
4 µg/mL,8 µg/mL,> 1020 µg/mL,> 1020 µg/mL,> 1020 µg/mL,4 µg/mL,16 µg/mL,> 1020 µg/mL,CCCCCCCCCCCCCCCC(=O)NCCN,,,,,,,,,,,,,
256 µg/mL,1020 µg/mL,64 µg/mL,64 µg/mL,16 µg/mL,256 µg/mL,128 µg/mL,32 µg/mL,CCCCCCCCCCCC(=O)NCCCCN,16 µg/mL,512 µg/mL,,,,,,,,,,,MBC (Escherichia coli [5]): 64 µg/mL; MBC (Pseudomonas aeruginosa [6]): 32 µg/mL
